US6737383B1, “Herbicidal oxadiazolidines” (priority 1999, dated 2004)

Columns and labels:
sourgrass = test: Test D sourgrass; type: in vivo, Trichachne insularis; details: Preemergence, 0 to 100 scale
Method in brief: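 Visual injury ratings, 0 = no injury to 100 = complete control, taken 14 to 21 days after treatment. Test chemicals were in a surfactant-containing non-phytotoxic solvent; preemergence treatments went onto the sandy loam surface of seeded greenhouse pots within one day of sowing.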

windgrass = test: Test E windgrass; type: in vivo, Apera spica-venti; details: Postemergence, Rate 62 g/ha; 0 to 100 scale
Method in brief: (§1)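 Visually scored herbicidal effect relative to untreated plants, taken ~21 to 28 days post-application; compound in solvent with surfactant; postemergence sprays at the 1- to 4-leaf stage.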

jointed goatgrass = test: Test E jointed goatgrass; type: in vivo, Aegilops cylindrica; details: Postemergence
Method in brief: as §1

Russian thistle [1] = test: Test E Russian thistle; type: in vivo, Salsola kali; details: Postemergence
Method in brief: as §1

black nightshade = test: Test E black nightshade; type: in vivo, Solanum nigra; details: Preemergence
redroot pigweed = test: Test E redroot pigweed; type: in vivo, Amaranthus retroflexus; details: Postemergence
Method in brief: as §1

sugar beet = test: Test E sugar beet; type: in vivo, Beta vulgaris; details: Postemergence
Method in brief: as §1

winter barley = test: Test E winter barley; type: in vivo, Hordeum vulgare; details: Postemergence
Method: (§2) Compounds evaluated in this test were formulated in a non-phytotoxic solvent mixture which included a surfactant and applied to plants that were in the 1- to 4-leaf stage (postemergence application). A mixture of sandy loam soil and greenhouse potting mix in a 60:40 ratio was used for the postemergence test.
(§3) Plantings of these crops and weed species were adjusted to produce plants of appropriate size for the postemergence test. All plant species were grown using normal greenhouse practices. Crop and weed species include annual bluegrass (Poa annua), blackgrass (Alopecurus myosuroides), black nightshade (Solanum nigra), chickweed (Stellaria media), common poppy (Papaver rhoeas), deadnettle (Lamium amplexicaule), downy brome (Bromus tectorum), field violet (Viola arvensis), galium (Galium aparine), green foxtail (Setaria viridis), Italian ryegrass (Lolium multiflorum), jointed goatgrass (Aegilops cylindrica), kochia (Kochia scoparia), lambsquarters (Chenopodium album), littleseed canarygrass (Phalaris minor), rape (Brassica napus), redroot pigweed (Amaranthus retroflexus), Russian thistle (Salsola kali), scentless chamomile (Matricaria inodora), spring barley (Hordeum vulgare), sugar beet (Beta vulgaris), sunflower (Helianthus annuus), ivyleaf speedwell (Veronica hederaefolia), spring wheat (Triticum aestivum), winter wheat (Triticum aestivum), wild buckwheat (Polygonum convolvulus), wild mustard (Sinapis arvensis), wild oat (Avena fatua), windgrass (Apera spica-venti) and winter barley (Hordeum vulgare).
(§4) Treated plants and untreated controls were maintained in a greenhouse for approximately 21 to 28 days, after which all treated plants were compared to untreated controls and visually evaluated. […] A dash response (-) means no test result.

spring wheat [2] = test: Test E spring wheat; type: in vivo, Triticum aestivum; details: Postemergence
Method: as §2, §3, §4

kochia = test: Test E kochia; type: in vivo, Kochia scoparia; details: Preemergence
wild buckwheat = test: Test E wild buckwheat; type: in vivo, Polygonum convolvulus; details: Postemergence
Method: as §2, §3, §4

rape = test: Test E rape; type: in vivo, Brassica napus; details: Postemergence
Method: […] A mixture of sandy loam soil and greenhouse potting mix in a 60:40 ratio was used for the postemergence test.
as §3, §4

green foxtail = test: Test E green foxtail; type: in vivo, Setaria viridis; details: Postemergence
Method in brief: as §1

spring wheat [3] = test: Test E spring wheat; type: in vivo, Triticum aestivum; details: Preemergence
Russian thistle [4] = test: Test E Russian thistle; type: in vivo, Salsola kali; details: Preemergence
blackgrass = test: Test E blackgrass; type: in vivo, Alopecurus myosuroides; details: Postemergence
Method: as §2, §3, §4

scentless chamomile = test: Test E scentless chamomile; type: in vivo, Matricaria inodora; details: Preemergence
[5] = Rate 250 g/ha, 0 to 100 scale (0 no effect, 100 complete control)
[6] = Rate 62 g/ha, 0 to 100 scale, 0 no effect, 100 complete control
[7] = Rate 125 g/ha, 0 to 100 scale (0 no effect, 100 complete control)

With `Cc1ccccc1-n1c(=O)on(C(=O)N(c2ccc(F)cc2)C(C)C)c1=O` [Compound 4] the “Plant response rating, Sourgrass” value (sourgrass; Rate 16 g/ha, 0 no injury, 100 complete control) was 50, the “Plant response rating, Sourgrass” value (sourgrass; Rate 32 g/ha, 0 no injury, 100 complete control) was 65 and the “Sourgrass plant response rating” value (sourgrass; Rate 64 g/ha, 0 no injury, 100 complete control) was 90. The “Sourgrass plant response rating” value (sourgrass; Rate 125 g/ha, 0 no injury, 100 complete control) was 100, the “Plant response rating, Sourgrass” value (sourgrass; Rate 250 g/ha) was 100 and the “Plant response rating, Sourgrass” value (sourgrass; Rate 500 g/ha) was 100.
With `C=CCn1c(=O)on(C(=O)N(c2ccccc2)C(C)C)c1=O` [Compound 93] the “Plant response rating, Windgrass” value (windgrass) was 60, the “Plant response rating, Jointed goatgra” value (jointed goatgrass; Rate 62 g/ha, 0 to 100 scale) was 0 and the “Plant response rating, Jointed goatgra” value (jointed goatgrass; Rate 125 g/ha, 0 to 100 scale) was 0. For the same compound, the “Plant response rating, Jointed goatgra” value (jointed goatgrass; [5]) was 0, the “Plant response rating, Russian thistle” value (Russian thistle [1]; Rate 62 g/ha, 0 to 100 scale) was 0 and the “Plant response rating, Russian thistle” value (Russian thistle [1]; Rate 125 g/ha, 0 to 100 scale) was 0. For the same compound, the “Plant response rating, Russian thistle” value (Russian thistle [1]; [5]) was 0, the “Plant response rating, Blk nightshade” value (black nightshade; [6]) was 60 and the “Plant response rating, Blk nightshade” value (black nightshade; [7]) was 65. The “Plant response rating, Blk nightshade” value (black nightshade; Rate 250 g/ha, 0 to 100 scale) was 80, the “Plant response rating, Redroot pigweed” value (redroot pigweed; Rate 62 g/ha, 0 to 100 scale) was 0 and the “Plant response rating, Redroot pigweed” value (redroot pigweed; Rate 125 g/ha, 0 to 100 scale) was 0. The “Plant response rating, Redroot pigweed” value (redroot pigweed; [5]) was 0, the “Plant response rating, Sugar beet” value (sugar beet; Rate 62 g/ha, 0 to 100 scale) was 0 and the “Plant response rating, Sugar beet” value (sugar beet; Rate 125 g/ha, 0 to 100 scale) was 0. The “Plant response rating, Sugar beet” value (sugar beet; [5]) was 0, the “Plant response rating, Barley (winter)” value (winter barley; Rate 62 g/ha, 0 to 100 scale) was 0 and the “Plant response rating, Barley (winter)” value (winter barley; Rate 125 g/ha, 0 to 100 scale) was 0. The “Plant response rating, Barley (winter)” value (winter barley; [5]) was 0, the “Plant response rating, Spring Wheat” value (spring wheat [2]; Rate 62 g/ha, 0 to 100 scale) was 0 and the “Plant response rating, Spring Wheat” value (spring wheat [2]; Rate 125 g/ha, 0 to 100 scale) was 0. The “Plant response rating, Spring Wheat” value (spring wheat [2]; [5]) was 0, the “Plant response rating, Kochia” value (kochia; [6]) was 0 and the “Plant response rating, Kochia” value (kochia; [7]) was 0. For the same compound, the “Plant response rating, Kochia” value (kochia; Rate 250 g/ha, 0 to 100 scale) was 20, the “Plant response rating, Wild buckwheat” value (wild buckwheat; Rate 62 g/ha, 0 to 100 scale) was 0 and the “Plant response rating, Wild buckwheat” value (wild buckwheat; Rate 125 g/ha, 0 to 100 scale) was 0. The “Plant response rating, Wild buckwheat” value (wild buckwheat; [5]) was 0, the “Plant response rating, Rape” value (rape; Rate 62 g/ha, 0 to 100 scale) was 0 and the “Plant response rating, Rape” value (rape; Rate 125 g/ha, 0 to 100 scale) was 0. For the same compound, the “Plant response rating, Rape” value (rape; [5]) was 0, the “Plant response rating, Green foxtail” value (green foxtail; Rate 62 g/ha, 0 to 100 scale) was 0 and the “Plant response rating, Green foxtail” value (green foxtail; Rate 125 g/ha, 0 to 100 scale) was 0. The “Plant response rating, Green foxtail” value (green foxtail; [5]) was 0, the “Plant response rating, Spring Wheat” value (spring wheat [3]; [6]) was 30 and the “Plant response rating, Spring Wheat” value (spring wheat [3]; [7]) was 50. The “Plant response rating, Spring Wheat” value (spring wheat [3]; Rate 250 g/ha, 0 to 100 scale) was 80, the “Plant response rating, Russian thistle” value (Russian thistle [4]; [6]) was 0 and the “Plant response rating, Russian thistle” value (Russian thistle [4]; [7]) was 0. The “Plant response rating, Russian thistle” value (Russian thistle [4]; Rate 250 g/ha, 0 to 100 scale) was 0, the “Plant response rating, Blackgrass” value (blackgrass; Rate 62 g/ha, 0 to 100 scale) was 10 and the “Plant response rating, Blackgrass” value (blackgrass; Rate 125 g/ha, 0 to 100 scale) was 30. For the same compound, the “Plant response rating, Blackgrass” value (blackgrass; [5]) was 40.
For `CCn1c(=O)on(C(=O)N(c2ccc(Cl)cc2)C(C)C)c1=O` [Compound 108], the “Plant response rating, Windgrass” value (windgrass) was 80, the “Plant response rating, Jointed goatgra” value (jointed goatgrass; Rate 62 g/ha, 0 to 100 scale) was 10 and the “Plant response rating, Jointed goatgra” value (jointed goatgrass; Rate 125 g/ha, 0 to 100 scale) was 10. For the same compound, the “Plant response rating, Jointed goatgra” value (jointed goatgrass; [5]) was 10, the “Plant response rating, Russian thistle” value (Russian thistle [1]; Rate 62 g/ha, 0 to 100 scale) was 0 and the “Plant response rating, Russian thistle” value (Russian thistle [1]; Rate 125 g/ha, 0 to 100 scale) was 0. For the same compound, the “Plant response rating, Russian thistle” value (Russian thistle [1]; [5]) was 0, the “Plant response rating, Blk nightshade” value (black nightshade; [6]) was 50 and the “Plant response rating, Blk nightshade” value (black nightshade; [7]) was 85. For the same compound, the “Plant response rating, Blk nightshade” value (black nightshade; Rate 250 g/ha, 0 to 100 scale) was 90, the “Plant response rating, Redroot pigweed” value (redroot pigweed; Rate 62 g/ha, 0 to 100 scale) was 5 and the “Plant response rating, Redroot pigweed” value (redroot pigweed; Rate 125 g/ha, 0 to 100 scale) was 20. For the same compound, the “Plant response rating, Redroot pigweed” value (redroot pigweed; [5]) was 30, the “Plant response rating, Sugar beet” value (sugar beet; Rate 62 g/ha, 0 to 100 scale) was 5 and the “Plant response rating, Sugar beet” value (sugar beet; Rate 125 g/ha, 0 to 100 scale) was 10. For the same compound, the “Plant response rating, Sugar beet” value (sugar beet; [5]) was 20, the “Plant response rating, Barley (winter)” value (winter barley; Rate 62 g/ha, 0 to 100 scale) was 10 and the “Plant response rating, Barley (winter)” value (winter barley; Rate 125 g/ha, 0 to 100 scale) was 10. For the same compound, the “Plant response rating, Barley (winter)” value (winter barley; [5]) was 15, the “Plant response rating, Spring Wheat” value (spring wheat [2]; Rate 62 g/ha, 0 to 100 scale) was 10 and the “Plant response rating, Spring Wheat” value (spring wheat [2]; Rate 125 g/ha, 0 to 100 scale) was 10. The “Plant response rating, Spring Wheat” value (spring wheat [2]; [5]) was 20, the “Plant response rating, Kochia” value (kochia; [6]) was 50 and the “Plant response rating, Kochia” value (kochia; [7]) was 50. The “Plant response rating, Kochia” value (kochia; Rate 250 g/ha, 0 to 100 scale) was 40, the “Plant response rating, Wild buckwheat” value (wild buckwheat; Rate 62 g/ha, 0 to 100 scale) was 0 and the “Plant response rating, Wild buckwheat” value (wild buckwheat; Rate 125 g/ha, 0 to 100 scale) was 20. The “Plant response rating, Wild buckwheat” value (wild buckwheat; [5]) was 10, the “Plant response rating, Scentless chamo” value (scentless chamomile; [6]) was 50 and the “Plant response rating, Scentless chamo” value (scentless chamomile; [7]) was 60. For the same compound, the “Plant response rating, Scentless chamo” value (scentless chamomile; Rate 250 g/ha, 0 to 100 scale) was 80, the “Plant response rating, Rape” value (rape; Rate 62 g/ha, 0 to 100 scale) was 60 and the “Plant response rating, Rape” value (rape; Rate 125 g/ha, 0 to 100 scale) was 40. The “Plant response rating, Rape” value (rape; [5]) was 50, the “Plant response rating, Green foxtail” value (green foxtail; Rate 62 g/ha, 0 to 100 scale) was 10 and the “Plant response rating, Green foxtail” value (green foxtail; Rate 125 g/ha, 0 to 100 scale) was 15. The “Plant response rating, Green foxtail” value (green foxtail; [5]) was 75, the “Plant response rating, Spring Wheat” value (spring wheat [3]; [6]) was 10 and the “Plant response rating, Spring Wheat” value (spring wheat [3]; [7]) was 20. The “Plant response rating, Spring Wheat” value (spring wheat [3]; Rate 250 g/ha, 0 to 100 scale) was 30, the “Plant response rating, Russian thistle” value (Russian thistle [4]; [6]) was 0 and the “Plant response rating, Russian thistle” value (Russian thistle [4]; [7]) was 0. For the same compound, the “Plant response rating, Russian thistle” value (Russian thistle [4]; Rate 250 g/ha, 0 to 100 scale) was 15, the “Plant response rating, Blackgrass” value (blackgrass; Rate 62 g/ha, 0 to 100 scale) was 5 and the “Plant response rating, Blackgrass” value (blackgrass; Rate 125 g/ha, 0 to 100 scale) was 5. The “Plant response rating, Blackgrass” value (blackgrass; [5]) was 10.
